For assay [1], the target named is T1, human PNPO 1-31del variant (holo-enzyme) (Homo sapiens, UniProt Q9NVS9).
T1 construct: a main form corresponding to the entire protein; made in house; host or cells: E. coli BL21(DE3)
T1 sequence (Q9NVS9 32-261): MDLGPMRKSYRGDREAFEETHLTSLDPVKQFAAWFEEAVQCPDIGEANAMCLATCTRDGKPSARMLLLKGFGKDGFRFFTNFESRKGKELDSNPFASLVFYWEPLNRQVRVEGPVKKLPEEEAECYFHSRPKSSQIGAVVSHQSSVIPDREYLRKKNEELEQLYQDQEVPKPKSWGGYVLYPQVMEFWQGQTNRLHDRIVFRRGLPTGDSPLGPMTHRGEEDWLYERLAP
The assay can be described thus: PLP binding by FMN fluorescence changes, holo 1-31del. Conditions: read-out: PLP binding KD^FLUO. From the text:
In order to further confirm the location of the PNPO allosteric site, we made several attempts to obtain the crystal structure of the protein‐PLP complex. With the E. coli homologue, any attempt to obtain such a complex with the wild type protein yielded structures in which PLP was bound at the active site, and we could obtain a complex with PLP bound at the allosteric site only when we used a multiple variant form of the enzyme in which the capability to bind ligands at the active site was impaired (Barile et al., [2021]). On the basis of this previous experience, we carried out co‐crystallization attempts with either the wild type or the R225H variant of the human protein and PLP. […] We obtained crystals with both protein forms (Table S1); however, PLP was detected only in the active site of the wild type protein, thus a clear indication about the location of the allosteric site was missing. […] The most interesting features of the 1‐31del form are a lower KD for PLP binding (threefold lower with respect to wild type PNPO), which indicates a higher affinity for the allosteric site, and the related more marked allosteric inhibition, which is evident from the comparison of the reaction kinetics measured in TRIS and HEPES buffers (Figure 7). […]

The target of assay [2] is T2, human PNPO F48A/E50L/R258L variant (holo-enzyme) (Homo sapiens, UniProt Q9NVS9, E50L/F48A/R258L).
T2 construct: a main form corresponding to the entire protein; made in house; host or cells: E. coli BL21(DE3)
T2 sequence (Q9NVS9 1-261 F48A/E50L/R258L): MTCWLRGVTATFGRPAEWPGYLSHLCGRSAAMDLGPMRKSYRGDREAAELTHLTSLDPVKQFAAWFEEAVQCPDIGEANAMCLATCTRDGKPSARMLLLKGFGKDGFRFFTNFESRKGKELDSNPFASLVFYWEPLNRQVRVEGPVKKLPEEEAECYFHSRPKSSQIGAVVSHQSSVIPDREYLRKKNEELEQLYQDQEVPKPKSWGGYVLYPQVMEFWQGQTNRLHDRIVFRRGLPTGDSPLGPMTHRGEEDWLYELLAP
The assay can be described thus: PLP binding by FMN fluorescence changes, holo triple variant. The conditions noted are these: 100 nM enzyme, read-out: PLP binding KD^FLUO. The source says: PLP binding to PNPO can be detected and quantitatively measured using differential scanning fluorimetry (DSF) and also by measuring FMN fluorescence changes. We had previously attributed DSF changes to PLP binding at the active site, while FMN fluorescence changes were attributed to PLP binding at the allosteric site (Barile et al., [2019], [2020]). Previous experiments carried out with the PNPO R161C variant, affecting a residue that is essential for substrate binding and catalysis (and therefore also for PLP binding at the active site), confirms that DSF measurements only report PLP binding at the active site (Barile et al., [2021]; Table 1). […] We expected to observe no FMN fluorescence changes upon titration of the variants with PLP. However, this was not the case, and the dissociation constant values obtained by observing the FMN fluorescence emission were only up to threefold larger in the variants with respect to wild type PNPO (Figure 3). […] To check the second possibility, we measured intrinsic fluorescence changes of wild type and variant apo‐forms (i.e., without FMN) upon PLP titration. […]
Analyses of PLP binding, based on FMN fluorescence increase observed upon binding of PLP to PNPO, were performed as described in Barile et al. ([2020]). […] Emission spectra were recorded from […], with excitation and emission slits set at 3 and 5 nm, respectively. […]

This is an account of results in publication PMC10804683, “Identification of the pyridoxal 5′‐phosphate allosteric site in human pyridox(am)ine 5′‐phosphate oxidase” (Protein Science : A Publication of the Protein Society, 2024).

A word on the Kd: it is the free concentration of one partner at which half of the binding sites on the other are occupied at equilibrium, for simple one-to-one binding.

Turning to `Cc1ncc(COP(=O)(O)O)c(C=O)c1O` [PLP, pyridoxal 5′‐phosphate], the Kd amounted to 310 ± 30 nM in assay [1] and 1380 ± 80 nM in assay [2].
